Columns and labels:
human OX1R = target: T1, human OX1R (Homo sapiens, UniProt O43613); assay: Agonist activity against OX1R: intracellular calcium (Fura-2AM, FDSS7000) in CHOOX1R cells; format: cell-based; conditions: relative to orexin-A as full agonist (100%)
T1 construct: expressed in transfected cells; host or cells: CHO (Chinese hamster ovary) cells, line CHOOX1R, co-expressing NFAT-luciferase
T1 sequence (O43613 1-425): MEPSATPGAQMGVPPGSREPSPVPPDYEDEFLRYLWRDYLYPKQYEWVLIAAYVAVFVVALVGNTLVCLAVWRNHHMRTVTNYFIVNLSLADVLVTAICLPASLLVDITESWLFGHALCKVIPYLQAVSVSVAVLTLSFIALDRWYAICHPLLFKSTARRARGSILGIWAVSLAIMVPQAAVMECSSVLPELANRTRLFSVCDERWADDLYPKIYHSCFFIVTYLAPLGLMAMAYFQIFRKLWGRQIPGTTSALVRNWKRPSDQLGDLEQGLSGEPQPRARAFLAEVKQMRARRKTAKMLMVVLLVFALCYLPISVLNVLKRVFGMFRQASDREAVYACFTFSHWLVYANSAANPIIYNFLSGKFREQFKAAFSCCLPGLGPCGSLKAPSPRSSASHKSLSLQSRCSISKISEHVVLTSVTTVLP
How it was run: (§1)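 Response is agonist activity at 0.1, 1.0 or 10 μM compound as a percentage of the orexin-A full-agonist maximum, taken from 340/380 nm Fura-2 ratio changes. Each cell line is CHO constitutively expressing human OX1R or OX2R with NFAT-luciferase, dye-loaded 60 min with 5 μM Fura-2AM; compound range 10^−7–10^−5 M, 1% DMSO.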

human OX2R = target: T2, human OX2R (Homo sapiens, UniProt O43614); assay: Agonist activity against OX2R: intracellular calcium (Fura-2AM, FDSS7000) in CHOOX2R cells; format: cell-based; conditions: relative to orexin-A as full agonist (100%)
T2 construct: expressed in transfected cells; host or cells: CHO (Chinese hamster ovary) cells, line CHOOX2R, co-expressing NFAT-luciferase
T2 sequence (O43614 1-444): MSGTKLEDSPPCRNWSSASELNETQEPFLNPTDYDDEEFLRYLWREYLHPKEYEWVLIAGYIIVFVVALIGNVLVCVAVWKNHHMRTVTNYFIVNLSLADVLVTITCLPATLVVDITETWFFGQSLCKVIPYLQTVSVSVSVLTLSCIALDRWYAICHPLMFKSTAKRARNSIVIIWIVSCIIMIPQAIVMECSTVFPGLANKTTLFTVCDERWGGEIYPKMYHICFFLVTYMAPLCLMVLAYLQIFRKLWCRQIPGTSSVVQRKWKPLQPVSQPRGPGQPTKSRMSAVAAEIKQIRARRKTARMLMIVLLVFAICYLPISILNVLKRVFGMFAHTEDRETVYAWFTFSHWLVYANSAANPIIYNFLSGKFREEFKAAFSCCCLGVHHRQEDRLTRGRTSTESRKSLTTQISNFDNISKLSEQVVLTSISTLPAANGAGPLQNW
How it was run: as §1

Compound | Response (%) OX1R (human OX1R; 0.1 μM test compound) [%] | Response (%) OX1R (human OX1R; 1.0 μM test compound) [%] | Response (%) OX1R (human OX1R; 10 μM test compound) [%] | Response (%) OX2R (human OX2R; 0.1 μM test compound) [%] | Response (%) OX2R (human OX2R; 1.0 μM test compound) [%] | Response (%) OX2R (human OX2R; 10 μM test compound) [%] | Response (%) OX1R (human OX1R; test compound 0.1 μM) [%] | Response (%) OX1R (human OX1R; test compound 1.0 μM) [%] | Response (%) OX1R (human OX1R; test compound 10 μM) [%] | Response (%) OX2R (human OX2R; test compound 0.1 μM) [%] | Response (%) OX2R (human OX2R; test compound 1.0 μM) [%] | Response (%) OX2R (human OX2R; test compound 10 μM) [%] | Emax at 0.1 µM (human OX1R; test compound 0.1 μM, read-out: Response (%) OX1R) [%] | Emax at 1 µM (human OX1R; test compound 1.0 μM, read-out: Response (%) OX1R) [%] | Emax at 10 µM (human OX1R; test compound 10 μM, read-out: Response (%) OX1R) [%]
COc1ccc(-c2cccc(C(=O)N(C)C)c2)cc1S(=O)(=O)Nc1cccc(NC(=O)c2ccccc2N(C)C)c1 [Example 6] | 7 | 7 | 6 | 9 | 17 | 32 | – | – | – | – | – | – | – | – | –
COc1ccc(-c2cccc(C(=O)N(C)C)c2)cc1S(=O)(=O)Nc1cccc(NC(=O)Nc2cccc(N(C)C)c2)n1 [Example 124] | – | – | – | – | – | – | 8 | 7 | 8 | 9 | 78 | 147 | – | – | –
CCN(Cc1cccnc1)C(=O)c1ccc(OC)c(S(=O)(=O)Nc2cccc(NC(=O)Nc3cccc(N(C)C)c3)c2)c1 [Example 102] | – | – | – | – | – | – | <5 | <5 | <5 | 61 | 97 | 100 | – | – | –
COc1ccc(-c2cccc(C(=O)N(C)C)c2)cc1S(=O)(=O)Nc1ccccc1NC(=O)Nc1cccc(N(C)C)c1 [Example 121] | – | – | – | – | – | – | <5 | <5 | 10 | 7 | 47 | 104 | – | – | –
COc1ccc(-c2cccc(C(=O)N(C)C)c2)cc1S(=O)(=O)Nc1cccc(NC(=O)OC(C)(C)C)c1 [Example 74] | 6 | 7 | 7 | 15 | 13 | 64 | – | – | – | – | – | – | – | – | –
COc1ccc(-c2cccc(C(=O)N(C)C)c2)cc1S(=O)(=O)Nc1cccc(NC(=O)Nc2cc([N+](=O)[O-])cc([N+](=O)[O-])c2)c1 [Example 47] | <5 | <5 | <5 | 7 | 81 | 102 | – | – | – | – | – | – | – | – | –
COc1ccc(-c2cccc(C(=O)N(C)C)c2)cc1S(=O)(=O)Nc1cccc(NC(=O)Nc2cccc([N+](=O)[O-])c2)c1 [Example 57] | <5 | <5 | <5 | 91 | 92 | 60 | – | – | – | – | – | – | – | – | –
COc1ccc(-c2cccc(C(=O)N(C)C)c2)cc1S(=O)(=O)Nc1cccc(/N=N/c2ccc(N(C)C)cc2CO)c1 [Example 97, (E)-3′-(N-(3-((4-(dimethylamino)-2-(hydroxymethyl)phenyl)diazenyl)phenyl)sulfamoyl)-4′-methoxy-N,N-dimethyl-[1,1-biphenyl]-3-carboxamide] | – | – | – | – | – | – | – | – | – | 25 | 84 | 108 | < 5 | < 5 | 11
COc1ccc(-c2cccc(C(=O)N(C)C)c2)cc1S(=O)(=O)Nc1cccc(NC(=N)Nc2cccc(C)c2)c1 [Example 78] | <5 | <5 | 14 | 23 | 89 | 86 | – | – | – | – | – | – | – | – | –
COc1ccc(-c2cccc(C(=O)N(C)C)c2)cc1S(=O)(=O)Nc1cccc(NS(=O)(=O)c2cccc(Br)c2)c1 [Example 86] | – | – | – | – | – | – | <5 | <5 | <5 | <5 | <5 | 11 | – | – | –

Reference: US10351522B2, “Sulfonamide derivative and pharmaceutically acceptable acid addition salt thereof” (UNIVERSITY OF TSUKUBA, priority 2015, dated 2019)
